Measurements from ChEMBL document CHEMBL4680144, “N-thiadiazole-4-hydroxy-2-quinolone-3-carboxamides bearing heteroaromatic rings as novel antibacterial agents: Design, synthesis, biological evaluation and target identification” (Eur J Med Chem, 2020).
In brackets after ≈: the same amount, converted by molar mass. Activity calls are given as the source filed them. No cut-off for these calls is given here.

Key:
Staphylococcus aureus [1] = assay: Antibacterial activity against wild type methicillin-sensitive Staphylococcus aureus ATCC 29213 assessed as inhibition of bacterial growth incubated for 18 to 24 hrs by broth microdilution method; type: functional; conditions: time 18-24 hrs
Staphylococcus aureus [2] = assay: Antibacterial activity against methicillin-resistant Staphylococcus aureus clinical isolate 15-1 assessed as inhibition of bacterial growth incubated for 18 to 24 hrs by broth microdilution method; type: functional; conditions: time 18-24 hrs
Staphylococcus aureus [3] = assay: Antibacterial activity against methicillin-resistant Staphylococcus aureus clinical isolate 15-2 assessed as inhibition of bacterial growth incubated for 18 to 24 hrs by broth microdilution method; type: functional; conditions: time 18-24 hrs
Staphylococcus aureus [4] = assay: Antibacterial activity against methicillin-resistant Staphylococcus aureus clinical isolate 15-3 assessed as inhibition of bacterial growth incubated for 18 to 24 hrs by broth microdilution method; type: functional; conditions: time 18-24 hrs
Staphylococcus aureus [5] = assay: Antibacterial activity against methicillin-resistant Staphylococcus aureus clinical isolate 15-6 assessed as inhibition of bacterial growth incubated for 18 to 24 hrs by broth microdilution method; type: functional; conditions: time 18-24 hrs
Staphylococcus aureus [6] = assay: Antibacterial activity against methicillin-resistant Staphylococcus aureus clinical isolate 15-7 assessed as inhibition of bacterial growth incubated for 18 to 24 hrs by broth microdilution method; type: functional; conditions: time 18-24 hrs
Staphylococcus aureus [7] = assay: Antibacterial activity against methicillin resistant and vancomycin-intermediate sensitive Staphylococcus aureus ATCC 700699 assessed as inhibition of bacterial growth incubated for 18 to 24 hrs by broth microdilution method; type: functional; conditions: time 18-24 hrs
Staphylococcus aureus [8] = assay: Antibacterial activity against methicillin resistant and vancomycin-intermediate sensitive Staphylococcus aureus ATCC 700788 assessed as inhibition of bacterial growth incubated for 18 to 24 hrs by broth microdilution method; type: functional; conditions: time 18-24 hrs
[9] = test system: Staphylococcus epidermidis; assay: Antibacterial activity against methicillin-resistant Staphylococcus epidermidis clinical isolate 15-2 assessed as inhibition of bacterial growth incubated for 18 to 24 hrs by broth microdilution method; type: functional; conditions: time 18-24 hrs
Enterococcus faecalis [10] = assay: Antibacterial activity against Enterococcus faecalis clinical isolate 15-1 assessed as inhibition of bacterial growth incubated for 18 to 24 hrs by broth microdilution method; type: functional; conditions: time 18-24 hrs
Enterococcus faecalis [11] = assay: Antibacterial activity against Enterococcus faecalis clinical isolate 15-2 assessed as inhibition of bacterial growth incubated for 18 to 24 hrs by broth microdilution method; type: functional; conditions: time 18-24 hrs
Enterococcus faecium [12] = assay: Antibacterial activity against Enterococcus faecium clinical isolate 15-1 assessed as inhibition of bacterial growth incubated for 18 to 24 hrs by broth microdilution method; type: functional; conditions: time 18-24 hrs
Enterococcus faecium [13] = assay: Antibacterial activity against Enterococcus faecium clinical isolate 15-2 assessed as inhibition of bacterial growth incubated for 18 to 24 hrs by broth microdilution method; type: functional; conditions: time 18-24 hrs
HepG2 = assay: Cytotoxicity against human HepG2 cells assessed as reduction in cell viability after 72 hrs by sulforhodamine B assay; type: cell-based; conditions: HepG2, 72 h
HUVEC = assay: Cytotoxicity against HUVEC assessed as reduction in cell viability after 72 hrs by sulforhodamine B assay; type: cell-based; conditions: Homo sapiens
[14] = Selectivity index, ratio of IC50 for human HepG2 cells to MIC for methicillin-resistant Staphylococcus aureus; type: toxicity
[15] = Selectivity index, ratio of IC50 for human HUVEC cells to MIC for methicillin-resistant Staphylococcus aureus; type: toxicity
Staphylococcus aureus [16] = assay: Antibacterial activity against methicillin-resistant Staphylococcus aureus clinical isolate 15-1 assessed as reduction in bacterial growth treated for 20 passages; type: functional; conditions: time 24 hrs
Staphylococcus aureus [17] = assay: Bactericidal activity against methicillin-resistant Staphylococcus aureus clinical isolate 15-1 assessed as reduction in log10CFU at 4 times MIC measured over 24 hrs by time kill kinetics analysis; type: functional
[18] = Metabolic stability in mouse plasma assessed as half life measured upto 120 mins by LC-MS/MS analysis; type: ADME, cell-free
[19] = Metabolic stability in mouse liver microsomes assessed as half life preincubated for 5 mins followed by NADPH addition and measured up to 60 mins by LC-MS/MS analysis; type: ADME, Microsome; conditions: time 65 min
[20] = Metabolic stability in mouse liver microsomes assessed as intrinsic clearance preincubated for 5 mins followed by NADPH addition and measured up to 60 mins by LC-MS/MS analysis; type: ADME, Microsome; conditions: time 65 min, read-out: CLH
[21] = AUClast in Kunming mouse at 10 mg/kg, po measured upto 72 hrs by HPLC analysis; type: ADME, organism-based; parameters: route oral, dose 10 mg/kg, time <=72; conditions: in vivo
[22] = MRTlast in Kunming mouse at 10 mg/kg, po measured upto 72 hrs by HPLC analysis; type: ADME, organism-based; conditions: in vivo
[23] = Half life in Kunming mouse at 10 mg/kg, po measured upto 72 hrs by HPLC analysis; type: ADME, organism-based; conditions: in vivo
[24] = Tmax in Kunming mouse at 10 mg/kg, po measured upto 72 hrs by HPLC analysis; type: ADME, organism-based; conditions: in vivo
[25] = Cmax in Kunming mouse at 10 mg/kg, po measured upto 72 hrs by HPLC analysis; type: ADME, organism-based; parameters: route oral, dose 10 mg/kg, time <=72; conditions: in vivo
Staphylococcus aureus [26] = assay: In vivo antibacterial activity against methicillin resistant Staphylococcus aureus clinical isolate 15-1 infected in kunming mouse assessed as animal survival rate at 0.33 mg/kg, po administered 6 hrs prior to bacterial infection and at 0 and 6 hrs post infection and measured for 7 days (reference value: 12.5 %); type: functional; conditions: 15-1, po, 168 h, time 7 day
[27] = Protein binding in mouse plasma at 5 uM incubated for 5 hrs by equilibrium dialysis based LC-MS/MS analysis; type: ADME, cell-free; conditions: read-out: PPB
Staphylococcus aureus [28] = assay: Bactericidal activity against methicillin-resistant Staphylococcus aureus clinical isolate 15-1 assessed as reduction in log10CFU at 1 to 2 times MIC measured after 24 hrs by time kill kinetics analysis; type: functional, organism-based
[29] = Toxicity in Kunming mouse assessed as death at 30 mg/kg, po; type: organism-based; conditions: in vivo
Staphylococcus aureus [30] = assay: Potency index, ratio of vancomycin MIC to test compound MIC for antibacterial activity against methicillin-resistant Staphylococcus aureus clinical isolate 15-1 assessed as inhibition of bacterial growth incubated for 18 to 24 hrs by broth microdilution method; type: functional; conditions: time 18-24 hrs
Staphylococcus aureus [31] = assay: Potency index, ratio of vancomycin MIC to test compound MIC for antibacterial activity against methicillin-resistant Staphylococcus aureus clinical isolate 15-2 assessed as inhibition of bacterial growth incubated for 18 to 24 hrs by broth microdilution method; type: functional; conditions: time 18-24 hrs
Staphylococcus aureus [32] = assay: Potency index, ratio of vancomycin MIC to test compound MIC for antibacterial activity against methicillin-resistant Staphylococcus aureus clinical isolate 15-9 assessed as inhibition of bacterial growth incubated for 18 to 24 hrs by broth microdilution method; type: functional; conditions: time 18-24 hrs
Staphylococcus aureus [33] = assay: Potency index, ratio of vancomycin MIC to test compound MIC for antibacterial activity against methicillin resistant and vancomycin-intermediate sensitive Staphylococcus aureus ATCC 700699 assessed as inhibition of bacterial growth incubated for 18 to 24 hrs by broth microdilution method; type: functional; conditions: time 18-24 hrs
Staphylococcus aureus [34] = assay: Potency index, ratio of vancomycin MIC to test compound MIC for antibacterial activity against methicillin resistant and vancomycin-intermediate sensitive Staphylococcus aureus ATCC 700788 assessed as inhibition of bacterial growth incubated for 18 to 24 hrs by broth microdilution method; type: functional; conditions: time 18-24 hrs
[35] = test system: Staphylococcus epidermidis; assay: Potency index, ratio of vancomycin MIC to test compound MIC for antibacterial activity against methicillin-sensitive Staphylococcus epidermidis clinical isolate 15-3 assessed as inhibition of bacterial growth incubated for 18 to 24 hrs by broth microdilution method; type: functional; conditions: time 18-24 hrs
[36] = test system: Staphylococcus epidermidis; assay: Potency index, ratio of vancomycin MIC to test compound MIC for antibacterial activity against methicillin-sensitive Staphylococcus epidermidis clinical isolate 15-4 assessed as inhibition of bacterial growth incubated for 18 to 24 hrs by broth microdilution method; type: functional; conditions: time 18-24 hrs
Enterococcus faecalis [37] = assay: Potency index, ratio of vancomycin MIC to test compound MIC for antibacterial activity against Enterococcus faecalis clinical isolate 15-2 assessed as inhibition of bacterial growth incubated for 18 to 24 hrs by broth microdilution method; type: functional; conditions: time 18-24 hrs

`CCn1c(=O)c(C(=O)Nc2nnc(-c3nccs3)s2)c(O)c2ccccc21` showed an MIC (Staphylococcus aureus [1]) of 0.1 µg/mL (≈ 0.25 µM), an MIC (Staphylococcus aureus [2]) of 0.5 µg/mL (≈ 1.25 µM) and an MIC (Staphylococcus aureus [3]) of 0.5 µg/mL (≈ 1.25 µM). For the same molecule, the MIC (Staphylococcus aureus [4]) was 0.5 µg/mL (≈ 1.25 µM), the MIC (Staphylococcus aureus [5]) was 0.5 µg/mL (≈ 1.25 µM) and the MIC (Staphylococcus aureus [6]) was 0.5 µg/mL (≈ 1.25 µM). It also gave an MIC (Staphylococcus aureus [7]) of 0.5 µg/mL (≈ 1.25 µM), an MIC (Staphylococcus aureus [8]) of 0.5 µg/mL (≈ 1.25 µM) and an MIC [9] of 0.5 µg/mL (≈ 1.25 µM). For the same molecule, the MIC (Enterococcus faecalis [10]) was 0.5 µg/mL (≈ 1.25 µM), the MIC (Enterococcus faecalis [11]) was 0.5 µg/mL (≈ 1.25 µM) and the MIC (Enterococcus faecium [12]) was 1 µg/mL (≈ 2.5 µM). For the same molecule, the MIC (Enterococcus faecium [13]) was 1 µg/mL (≈ 2.5 µM), the IC50 (HepG2) was 55.3 µM and the IC50 (HUVEC) was 38.8 µM. The selectivity ratio [14] was 111, the selectivity ratio [15] was 77.6 and the MIC (Staphylococcus aureus [16]) was 0.5 µg/mL (≈ 1.25 µM). For the same molecule, the Activity (Staphylococcus aureus [17]) was >3 log10CFU/ml, the half-life [18] was 8.39 h and the half-life [19] was 0.593 h. The microsomal CLint [20] was 38.9 µL/min/mg, the AUC(0-t) at 72 h [21] was 2540 ng·h/mL and the MRT last at 72 h [22] was 2.7 h. It also gave a half-life [23] of 2.3 h, a Tmax [24] of 1 h and a Cmax [25] of 827 ng/mL. For the same molecule, the survival at 0.33 mg/kg (Staphylococcus aureus [26]) was 25%, the fraction unbound at 5 h, 5 µM [27] was 0.001 and the Activity (Staphylococcus aureus [28]) was “Active”. For the same molecule, the Activity [29] was “Non-Toxic”, the Ratio (Staphylococcus aureus [30]) was 2 and the Ratio (Staphylococcus aureus [31]) was 2. The Ratio (Staphylococcus aureus [32]) was 2, the Ratio (Staphylococcus aureus [33]) was 2 and the Ratio (Staphylococcus aureus [34]) was 2. It also gave a Ratio [35] of 2, a Ratio [36] of 2 and a Ratio (Enterococcus faecalis [37]) of 2.
